# From patent US10722520B2, “Heterocyclic compounds and their use in preventing or treating bacterial infections” (MUTABILIS, priority 2016, dated 2020)
# Structures can show the parent of a compound that is named as a salt. Where two headings read alike, the source gives them in different places.
# What was measured:
# [1] = molecular target: OXA-48 (Klebsiella pneumoniae, UniProt Q6XEC0)
# [2] = molecular target: OXA-1 (Escherichia coli, UniProt P13661)
# [3] = molecular target: SHV-1 (Klebsiella pneumoniae, UniProt P0AD64)
# [4] = molecular target: CMY-37 (Citrobacter freundii, UniProt P05193); settings: read-out: IC50 β-lactamase CMY-37
# [5] = molecular target: KPC-2 (Klebsiella pneumoniae, UniProt Q9F663)
# [6] = molecular target: CTX-M-15 (Escherichia coli, UniProt Q9EXV5)
# [7] = tested on: K. pneumoniae BAA-1898; assay: MIC of compound alone, broth microdilution; type: cell-based; settings: Klebsiella pneumoniae, BAA1898; strain BAA-1898; compound alone; read-out: MIC compounds of the invention alone
# Method in brief: (§1)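 Growth inhibition was scored by eye after 16-20 h at 35° C (room air), with bacteria from log phase seeded at 5×10^5 cfu/mL final in cation-adjusted Mueller-Hinton medium.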
# [8] = tested on: E. coli 190317; assay: MIC of compound alone, broth microdilution; type: cell-based; settings: Escherichia coli; strain 190317; compound alone; read-out: MIC compounds of the invention alone
# Method in brief: as §1
# [9] = tested on: K. pneumoniae 6299; assay: MIC of compound alone, broth microdilution; type: cell-based; settings: Klebsiella pneumoniae; strain 6299; compound alone; read-out: MIC compounds of the invention alone
# Method in brief: as §1
# [10] = tested on: E. cloacae P99; assay: MIC of compound alone, broth microdilution; type: cell-based; settings: Enterobacter cloacae; strain P99; compound alone; read-out: MIC compounds of the invention alone
# Method in brief: as §1
# [11] = tested on: P. aeruginosa CIP107051; assay: MIC of compound alone, broth microdilution; type: cell-based; settings: Pseudomonas aeruginosa; strain CIP107051; compound alone; read-out: MIC compounds of the invention alone
# Method in brief: as §1
# [12] = molecular target: OXA-15 (Pseudomonas aeruginosa, UniProt Q51574); assay: biochemical
# [13] = molecular target: OXA-11 (Pseudomonas aeruginosa, UniProt Q06778)
# [14] = molecular target: TEM-1 (Escherichia coli, UniProt P62593)
# [15] = molecular target: AmpC (P99) (Enterobacter cloacae, UniProt P05364); assay: biochemical
# [16] = molecular target: AmpC (PAE) (Pseudomonas aeruginosa, UniProt P24735); assay: biochemical
# [17] = class (C), nitrocefin 200 μM, 30-min pre-incubation, enzyme 0.2 nM
Structure (SMILES),IC50 [1],IC50 [2],IC50 [3],"IC50 [4, 17]",IC50 [5],IC50 [6],MIC [7],MIC [8],MIC [9],MIC [10],MIC [11],IC50 [12],IC50 [13],IC50 [14],IC50 [15],IC50 [16],IC50 [4]
"NC(=O)CNCc1cn(C2=CC3CN(C2)C(=O)N3OS(=O)(=O)O)nn1 (stereo not drawn) [Example 66, [3-(4-(2-(methylamino)acetamide)triazol-1-yl)-7-oxo-1,6-diazabicyclo[3.2.1]oct-3-en-6-yl]hydrogen sulfate]",0.64 nM,87 nM,3.1 nM,26 nM,6.1 nM,0.54 nM,16 µg/mL,4 µg/mL,32 µg/mL,8 µg/mL,> 32 µg/mL,7.5 nM,140 nM,0.36 nM,14 nM,250 nM,
"O=C1N2CC(n3cc(CNCCO)nn3)=CC(C2)N1OS(=O)(=O)O (stereo not drawn) [Example 67, [3-(4-(2-(methylamino)ethanol)triazol-1-yl)-7-oxo-1,6-diazabicyclo[3.2.1]oct-3-en-6-yl]hydrogen sulfate]",1.6 nM,270 nM,8.4 nM,100 nM,20 nM,1.3 nM,> 32 µg/mL,2 µg/mL,> 32 µg/mL,4 µg/mL,> 32 µg/mL,18 nM,250 nM,1.2 nM,38 nM,720 nM,
"O=C1N2CC(n3nccc3CCO)=CC(C2)N1OS(=O)(=O)[O-].[Na+] (stereo not drawn) [Example 68, sodium [3-[5-(2-hydroxyethyl)pyrazol-1-yl]-7-oxo-1,6-diazabicyclo[3.2.1]oct-3-en-6-yl]sulfate]",49 nM,1200 nM,2.8 nM,,300 nM,7.1 nM,> 32 µg/mL,> 32 µg/mL,> 32 µg/mL,> 32 µg/mL,> 32 µg/mL,4100 nM,3900 nM,0.73 nM,170 nM,430 nM,130 nM
"O=C1N2CC(n3ccnc3CO)=CC(C2)N1OS(=O)(=O)[O-].[Na+] (stereo not drawn) [Example 70, sodium [3-[2-(hydroxymethyl)imidazol-1-yl]-7-oxo-1,6-diazabicyclo[3.2.1]oct-3-en-6-yl]sulfate]",6.2 nM,92 nM,2.3 nM,,51 nM,3.5 nM,32 µg/mL,32 µg/mL,> 32 µg/mL,> 32 µg/mL,> 32 µg/mL,30 nM,170 nM,0.63 nM,94 nM,600 nM,120 nM
"O=C1N2CC(n3cc(CO)cn3)=CC(C2)N1OS(=O)(=O)[O-].[Na+] (stereo not drawn) [Example 71, sodium [3-[4-(hydroxymethyl)pyrazol-1-yl]-7-oxo-1,6-diazabicyclo[3.2.1]oct-3-en-6-yl]sulfate]",12 nM,450 nM,9.6 nM,,42 nM,0.78 nM,16 µg/mL,4 µg/mL,32 µg/mL,16 µg/mL,> 32 µg/mL,55 nM,260 nM,1.4 nM,19 nM,47 nM,10 nM
"O=C(NCCN1CCOCC1)c1ccn(C2=CC3CN(C2)C(=O)N3OS(=O)(=O)O)n1 (stereo not drawn) [Example 72, [3-[3-(2-morpholinoethylcarbamoyl)pyrazol-1-yl]-7-oxo-1,6-diazabicyclo[3.2.1]oct-3-en-6-yl]hydrogen sulfate]",2.5 nM,100 nM,6.7 nM,86 nM,7 nM,0.57 nM,> 32 µg/mL,> 32 µg/mL,> 32 µg/mL,> 32 µg/mL,> 32 µg/mL,43 nM,36 nM,0.91 nM,43 nM,540 nM,
"O=C(Nc1ccn(C2=CC3CN(C2)C(=O)N3OS(=O)(=O)O)n1)c1cncs1 (stereo not drawn) [Example 77, [3-[3-[thiazole-5-carbonyl]amino]pyrazol-1-yl]-7-oxo-1,6-diazabicyclo[3.2.1]oct-3-en-6-yl]hydrogen sulfate]",7.8 nM,140 nM,5.2 nM,7.1 nM,11 nM,1.5 nM,> 32 µg/mL,> 32 µg/mL,> 32 µg/mL,> 32 µg/mL,> 32 µg/mL,46 nM,16 nM,1.1 nM,11 nM,58 nM,
"O=C(Nc1ncns1)c1ccn(C2=CC3CN(C2)C(=O)N3OS(=O)(=O)O)n1 (stereo not drawn) [Example 79, [7-oxo-3-[3-(1,2,4-thiadiazol-5-ylcarbamoyl)pyrazol-1-yl]-1,6-diazabicyclo[3.2.1]oct-3-en-6-yl]hydrogen sulfate]",4.7 nM,65 nM,0.98 nM,8.6 nM,4.4 nM,0.46 nM,> 32 µg/mL,> 32 µg/mL,> 32 µg/mL,> 32 µg/mL,> 32 µg/mL,46 nM,19 nM,0.36 nM,14 nM,95 nM,
"O=C(Nc1ccccn1)c1ccn(C2=CC3CN(C2)C(=O)N3OS(=O)(=O)[O-])n1.[Na+] (stereo not drawn) [Example 80, sodium [7-oxo-3-[3-(2-pyridylcarbamoyl)pyrazol-1-yl]-1,6-diazabicyclo[3.2.1]oct-3-en-6-yl]sulfate]",0.86 nM,30 nM,1.4 nM,,2.6 nM,0.29 nM,> 32 µg/mL,> 32 µg/mL,> 32 µg/mL,> 32 µg/mL,> 32 µg/mL,11 nM,5.5 nM,0.27 nM,7.9 nM,150 nM,12 nM
"O=C(N[C@H]1CCNC1)c1ccn(C2=CC3CN(C2)C(=O)N3OS(=O)(=O)O)n1 (stereo partly drawn) [Example 82, [7-oxo-3-[3-[[(3S)-pyrrolidin-3-yl]carbamoyl]pyrazol-1-yl]-1,6-diazabicyclo[3.2.1]oct-3-en-6-yl]hydrogen sulfate]",3.2 nM,110 nM,4.9 nM,61 nM,10 nM,0.89 nM,32 µg/mL,2 µg/mL,32 µg/mL,4 µg/mL,> 32 µg/mL,47 nM,22 nM,0.58 nM,32 nM,270 nM,
"O=C(N[C@@H]1CCNC1)c1ccn(C2=CC3CN(C2)C(=O)N3OS(=O)(=O)O)n1 (stereo partly drawn) [Example 83, [7-oxo-3-[3-[[(3R)-pyrrolidin-3-yl]carbamoyl]pyrazol-1-yl]-1,6-diazabicyclo[3.2.1]oct-3-en-6-yl]hydrogen sulfate]",3.2 nM,37 nM,3.8 nM,63 nM,7.9 nM,0.64 nM,8 µg/mL,2 µg/mL,32 µg/mL,8 µg/mL,> 32 µg/mL,32 nM,24 nM,0.27 nM,24 nM,230 nM,
"O=C(Nc1nncs1)c1ccn(C2=CC3CN(C2)C(=O)N3OS(=O)(=O)[O-])n1.[Na+] (stereo not drawn) [Example 84, sodium [7-oxo-3-[3-(1,3,4-thiadiazol-2-ylcarbamoyl)pyrazol-1-yl]-1,6-diazabicyclo[3.2.1]oct-3-en-6-yl]sulfate]",7.2 nM,150 nM,2.7 nM,,8.5 nM,1 nM,> 32 µg/mL,> 32 µg/mL,> 32 µg/mL,> 32 µg/mL,> 32 µg/mL,98 nM,22 nM,0.78 nM,25 nM,160 nM,20 nM
